One block for each compound: values may come before it.
Experiments:
[1] = target: T1, Tyrosine-protein kinase receptor TYRO3 (Homo sapiens) (UniProt Q06418); conditions: at 10 µM
T1 sequence (whole entry): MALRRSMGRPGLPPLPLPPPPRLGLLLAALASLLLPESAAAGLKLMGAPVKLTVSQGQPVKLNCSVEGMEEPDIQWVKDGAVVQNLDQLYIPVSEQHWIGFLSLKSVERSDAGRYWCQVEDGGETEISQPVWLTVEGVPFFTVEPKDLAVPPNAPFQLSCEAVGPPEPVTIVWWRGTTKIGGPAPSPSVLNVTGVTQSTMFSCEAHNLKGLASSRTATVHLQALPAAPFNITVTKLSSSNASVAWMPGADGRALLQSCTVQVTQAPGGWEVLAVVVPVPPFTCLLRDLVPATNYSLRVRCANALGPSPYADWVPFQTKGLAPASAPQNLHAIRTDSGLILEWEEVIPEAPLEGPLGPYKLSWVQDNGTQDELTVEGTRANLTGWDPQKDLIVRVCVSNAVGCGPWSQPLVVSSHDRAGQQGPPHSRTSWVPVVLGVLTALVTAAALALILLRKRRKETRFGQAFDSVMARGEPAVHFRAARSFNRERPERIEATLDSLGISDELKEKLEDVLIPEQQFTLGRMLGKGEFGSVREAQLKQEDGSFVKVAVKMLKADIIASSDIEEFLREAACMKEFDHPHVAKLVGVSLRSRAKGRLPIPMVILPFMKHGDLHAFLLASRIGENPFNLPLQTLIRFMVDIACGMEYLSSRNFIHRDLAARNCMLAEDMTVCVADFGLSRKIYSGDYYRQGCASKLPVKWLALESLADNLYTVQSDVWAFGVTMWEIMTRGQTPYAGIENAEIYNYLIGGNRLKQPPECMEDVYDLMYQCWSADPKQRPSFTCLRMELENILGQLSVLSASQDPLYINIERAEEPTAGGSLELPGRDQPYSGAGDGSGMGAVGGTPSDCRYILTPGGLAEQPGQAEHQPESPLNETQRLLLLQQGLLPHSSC

[2] = target: Histone-lysine N-methyltransferase ASH1L (Homo sapiens) (UniProt Q9NR48); assay: Selectivity interaction (Methyltransferase screen (radiometric assays, panel of 8 PRMTs, 21 protein lysine methyltransferases, 3 DNA methyltransferases, and one RNA methyltransferase)) EUB0000272b ASH1L
[3] = target: T2, Receptor-interacting serine/threonine-protein kinase 4 (Homo sapiens) (UniProt P57078); assay: Selectivity interaction (KinomeScan (DiscoverX)) EUB0000607a RIPK4; conditions: at 10 µM
T2 sequence (whole entry): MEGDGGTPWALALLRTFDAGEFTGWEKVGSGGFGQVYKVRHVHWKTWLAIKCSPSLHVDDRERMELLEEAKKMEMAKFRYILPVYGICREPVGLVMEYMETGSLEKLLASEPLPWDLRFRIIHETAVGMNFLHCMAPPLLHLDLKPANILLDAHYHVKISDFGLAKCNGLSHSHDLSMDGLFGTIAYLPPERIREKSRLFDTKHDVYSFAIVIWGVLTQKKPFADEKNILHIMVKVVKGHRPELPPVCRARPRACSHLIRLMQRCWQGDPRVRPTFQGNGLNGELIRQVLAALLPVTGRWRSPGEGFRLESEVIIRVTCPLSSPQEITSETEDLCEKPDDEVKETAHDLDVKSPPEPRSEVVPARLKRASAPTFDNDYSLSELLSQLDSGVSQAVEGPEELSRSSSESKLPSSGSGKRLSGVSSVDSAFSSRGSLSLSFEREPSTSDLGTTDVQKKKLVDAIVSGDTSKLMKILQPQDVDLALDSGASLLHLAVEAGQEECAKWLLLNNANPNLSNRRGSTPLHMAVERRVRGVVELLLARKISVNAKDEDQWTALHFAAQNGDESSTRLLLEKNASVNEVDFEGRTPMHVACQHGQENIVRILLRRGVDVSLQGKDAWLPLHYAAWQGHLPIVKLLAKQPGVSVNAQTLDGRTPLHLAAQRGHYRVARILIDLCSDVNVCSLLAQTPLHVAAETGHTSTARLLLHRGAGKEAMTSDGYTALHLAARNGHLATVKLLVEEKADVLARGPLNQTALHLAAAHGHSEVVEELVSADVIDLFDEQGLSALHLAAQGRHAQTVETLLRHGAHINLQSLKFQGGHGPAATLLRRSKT

[4] = target: Calcium/calmodulin-dependent protein kinase type 1 (Homo sapiens) (UniProt Q14012); assay: Selectivity interaction (KinomeScan (DiscoverX)) EUB0000045b CAMK1
EML4-ALK (Homo sapiens) = EML4-ALK (Homo sapiens) (UniProt Q9UM73+Q9HC35); assay: Selectivity interaction (ProQinase) EUB0000171b ALK; assay type: protein assay; conditions: at 1 µM
[5] = test system: Epidermal growth factor receptor (Homo sapiens), P00533 [UNDEFINED MUTATION]; assay: Selectivity interaction (ProQinase) EUB0000171b EGFR; conditions: at 5 µM
[6] = target: Serine/threonine-protein kinase MRCK alpha (Homo sapiens) (UniProt Q5VT25); assay: Selectivity interaction (KinomeScan (DiscoverX)) EUB0000092b CDC42BPA; conditions: at 10 µM
[7] = target: T3, Receptor-interacting serine/threonine-protein kinase 1 (Homo sapiens) (UniProt Q13546); assay: Selectivity interaction (KinomeScan (DiscoverX)) EUB0000695a RIPK1; conditions: at 100 nM
T3 sequence (whole entry): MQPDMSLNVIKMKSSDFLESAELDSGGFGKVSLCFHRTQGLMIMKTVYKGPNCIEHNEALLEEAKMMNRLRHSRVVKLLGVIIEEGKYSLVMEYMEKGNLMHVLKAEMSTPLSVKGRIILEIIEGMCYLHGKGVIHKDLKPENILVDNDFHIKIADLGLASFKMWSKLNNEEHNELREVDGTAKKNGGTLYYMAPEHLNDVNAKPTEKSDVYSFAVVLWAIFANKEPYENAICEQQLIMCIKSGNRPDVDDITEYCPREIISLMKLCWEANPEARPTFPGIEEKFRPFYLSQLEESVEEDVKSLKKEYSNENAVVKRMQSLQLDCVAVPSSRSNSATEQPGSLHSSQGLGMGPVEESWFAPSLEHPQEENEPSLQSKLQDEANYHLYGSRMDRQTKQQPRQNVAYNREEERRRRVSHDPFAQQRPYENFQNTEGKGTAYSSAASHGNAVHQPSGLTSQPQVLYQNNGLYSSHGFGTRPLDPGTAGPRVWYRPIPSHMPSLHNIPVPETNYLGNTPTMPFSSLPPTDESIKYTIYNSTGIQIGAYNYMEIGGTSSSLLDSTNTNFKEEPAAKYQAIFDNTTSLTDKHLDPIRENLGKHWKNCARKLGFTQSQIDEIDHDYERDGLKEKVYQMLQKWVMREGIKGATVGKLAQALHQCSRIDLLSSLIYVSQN

Chain of Calcium/calmodulin-dependent protein kinase type 1 (Homo sapiens) (Q14012 whole entry, looked up): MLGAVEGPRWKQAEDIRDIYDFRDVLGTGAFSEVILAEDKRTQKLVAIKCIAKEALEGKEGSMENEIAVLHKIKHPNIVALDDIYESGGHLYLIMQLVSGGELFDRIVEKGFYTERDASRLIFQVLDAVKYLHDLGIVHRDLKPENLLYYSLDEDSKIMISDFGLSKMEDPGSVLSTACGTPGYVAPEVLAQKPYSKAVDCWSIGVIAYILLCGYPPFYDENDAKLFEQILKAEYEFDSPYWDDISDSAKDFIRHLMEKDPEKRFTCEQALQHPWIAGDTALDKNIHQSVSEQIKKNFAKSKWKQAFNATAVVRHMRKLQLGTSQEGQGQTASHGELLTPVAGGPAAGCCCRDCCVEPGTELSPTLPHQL
Chain of Serine/threonine-protein kinase MRCK alpha (Homo sapiens) (Q5VT25 whole entry): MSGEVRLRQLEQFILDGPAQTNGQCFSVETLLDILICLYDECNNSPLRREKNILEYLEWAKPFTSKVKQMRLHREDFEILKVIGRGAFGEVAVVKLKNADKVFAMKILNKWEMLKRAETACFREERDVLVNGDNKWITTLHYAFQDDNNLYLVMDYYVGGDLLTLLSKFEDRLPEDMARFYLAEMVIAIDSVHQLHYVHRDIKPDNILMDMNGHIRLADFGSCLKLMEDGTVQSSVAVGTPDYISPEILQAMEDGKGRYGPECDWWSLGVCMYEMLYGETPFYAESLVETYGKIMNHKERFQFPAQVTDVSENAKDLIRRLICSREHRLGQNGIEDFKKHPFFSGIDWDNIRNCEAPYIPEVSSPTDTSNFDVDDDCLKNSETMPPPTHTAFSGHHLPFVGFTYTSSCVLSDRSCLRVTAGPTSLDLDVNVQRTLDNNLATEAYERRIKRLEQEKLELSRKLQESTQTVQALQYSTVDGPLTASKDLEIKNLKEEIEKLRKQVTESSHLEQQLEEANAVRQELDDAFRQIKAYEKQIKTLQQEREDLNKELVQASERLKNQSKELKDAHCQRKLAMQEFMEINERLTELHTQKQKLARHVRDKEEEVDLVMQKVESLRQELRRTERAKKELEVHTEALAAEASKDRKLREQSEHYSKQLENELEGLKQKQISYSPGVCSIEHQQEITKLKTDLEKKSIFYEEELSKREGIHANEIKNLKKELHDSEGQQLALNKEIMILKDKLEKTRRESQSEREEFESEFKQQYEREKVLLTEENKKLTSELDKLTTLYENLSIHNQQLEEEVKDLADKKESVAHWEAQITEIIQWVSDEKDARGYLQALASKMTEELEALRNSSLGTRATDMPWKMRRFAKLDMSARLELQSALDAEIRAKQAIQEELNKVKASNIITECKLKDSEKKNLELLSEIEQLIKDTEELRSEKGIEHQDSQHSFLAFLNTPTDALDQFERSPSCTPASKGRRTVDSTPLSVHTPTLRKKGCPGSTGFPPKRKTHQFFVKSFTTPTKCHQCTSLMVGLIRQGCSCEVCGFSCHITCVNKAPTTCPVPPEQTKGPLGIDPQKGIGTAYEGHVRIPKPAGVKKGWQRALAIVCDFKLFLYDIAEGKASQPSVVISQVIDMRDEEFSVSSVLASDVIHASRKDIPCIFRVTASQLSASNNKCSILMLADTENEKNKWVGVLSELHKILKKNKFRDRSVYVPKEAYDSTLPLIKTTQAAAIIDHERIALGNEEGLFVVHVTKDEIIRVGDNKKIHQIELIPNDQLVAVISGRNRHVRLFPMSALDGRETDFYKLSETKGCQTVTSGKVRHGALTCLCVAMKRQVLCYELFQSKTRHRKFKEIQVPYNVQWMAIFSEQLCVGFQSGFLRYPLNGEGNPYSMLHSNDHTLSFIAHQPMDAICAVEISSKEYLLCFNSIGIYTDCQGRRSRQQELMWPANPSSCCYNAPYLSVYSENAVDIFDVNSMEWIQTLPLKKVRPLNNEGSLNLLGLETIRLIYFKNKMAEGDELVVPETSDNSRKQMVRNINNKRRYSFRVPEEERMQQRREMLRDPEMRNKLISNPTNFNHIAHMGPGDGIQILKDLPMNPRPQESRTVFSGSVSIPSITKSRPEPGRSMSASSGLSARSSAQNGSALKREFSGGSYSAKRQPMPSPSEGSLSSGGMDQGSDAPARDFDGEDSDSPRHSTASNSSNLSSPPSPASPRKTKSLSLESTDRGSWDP
Chain of Epidermal growth factor receptor (Homo sapiens), P00533 [UNDEFINED MUTATION] (P00533 whole entry, looked up, change not shown): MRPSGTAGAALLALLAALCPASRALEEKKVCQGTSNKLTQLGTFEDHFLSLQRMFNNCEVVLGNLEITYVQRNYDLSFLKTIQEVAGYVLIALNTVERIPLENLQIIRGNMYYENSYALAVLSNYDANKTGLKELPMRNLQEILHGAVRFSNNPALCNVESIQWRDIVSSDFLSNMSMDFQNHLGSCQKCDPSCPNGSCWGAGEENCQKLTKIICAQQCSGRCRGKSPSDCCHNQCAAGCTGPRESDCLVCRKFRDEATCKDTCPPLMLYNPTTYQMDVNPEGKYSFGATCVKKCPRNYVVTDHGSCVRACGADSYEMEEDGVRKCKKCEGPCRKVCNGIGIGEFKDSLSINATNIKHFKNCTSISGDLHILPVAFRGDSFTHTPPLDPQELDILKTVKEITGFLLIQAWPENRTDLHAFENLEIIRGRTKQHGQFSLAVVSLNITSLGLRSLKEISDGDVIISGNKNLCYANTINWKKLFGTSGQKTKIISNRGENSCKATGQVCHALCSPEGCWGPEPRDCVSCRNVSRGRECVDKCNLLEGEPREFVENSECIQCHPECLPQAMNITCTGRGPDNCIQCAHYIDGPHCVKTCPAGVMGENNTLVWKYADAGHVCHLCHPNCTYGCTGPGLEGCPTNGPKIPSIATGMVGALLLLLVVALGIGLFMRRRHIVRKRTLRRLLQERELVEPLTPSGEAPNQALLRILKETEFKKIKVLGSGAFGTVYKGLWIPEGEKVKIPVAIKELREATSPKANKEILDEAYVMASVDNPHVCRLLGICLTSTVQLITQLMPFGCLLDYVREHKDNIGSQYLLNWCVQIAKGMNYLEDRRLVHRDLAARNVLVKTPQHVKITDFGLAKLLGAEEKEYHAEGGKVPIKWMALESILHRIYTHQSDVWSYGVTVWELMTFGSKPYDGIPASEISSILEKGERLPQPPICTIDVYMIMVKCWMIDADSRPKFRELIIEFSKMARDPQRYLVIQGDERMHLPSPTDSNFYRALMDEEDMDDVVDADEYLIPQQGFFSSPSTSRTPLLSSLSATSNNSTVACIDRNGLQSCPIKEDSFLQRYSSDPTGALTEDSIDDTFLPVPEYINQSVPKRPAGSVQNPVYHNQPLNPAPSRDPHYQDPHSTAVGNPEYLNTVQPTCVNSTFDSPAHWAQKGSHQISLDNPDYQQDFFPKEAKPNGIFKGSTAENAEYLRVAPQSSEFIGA

% of control [1]: 100%
SMILES: CCN(CC)CCCCNc1ncc2cc(-c3cc(OC)cc(OC)c3)c(NC(=O)NC(C)(C)C)nc2n1

% of activity ([2]; at 1 µM): 102%
% of activity ([2]; at 10 µM): 99.7%
SMILES: Cc1cc(C)cc([C@H]2c3cc(C)ccc3NC(=O)CN2C(=O)c2ccc(Br)s2)c1

SMILES: CNC(=O)Nc1ccc(-c2nc(N3CC4CCC(C3)O4)c3cnn(C4CCC5(CC4)OCCO5)c3n2)cc1
% of control [3]: 98%

SMILES: C=CC(=O)Nc1cc(-n2c(=O)ccc3cnc4ccc(-c5ccc(NS(C)(=O)=O)cc5)cc4c32)ccc1C
% of control ([4]; at 1 µM): 100%
% of control ([4]; at 10 µM): 88%

% of control (EML4-ALK (Homo sapiens)): 93%
% of control [5]: 86%
SMILES: C=CC(=O)Nc1cccc(C(=O)Nc2ccc(Nc3cc(-c4[nH]c(SC)nc4C)ccn3)cc2)c1

SMILES: CCC(=O)N1CCN(c2ccc(-n3c(=O)ccc4cnc5ccc(-c6cnc7ccccc7c6)cc5c43)cc2C(F)(F)F)CC1
% of control [6]: 0.7%

SMILES: Cc1cc(F)c(C(=O)Nc2cccc(-c3nncn3C(C)C)n2)cc1-n1cnc(C2CC2)c1
% of control [7]: 89%

— ChEMBL document CHEMBL5465560, “Selectivity Literature for EUbOPEN Chemogenomic Library” (2024)
